Patent US9227921B2, “Salts and polymorphs of a tetracycline compound” (Paratek Pharmaceuticals, Inc., priority 2008, dated 2016)

Legend:
Assay type in all cases: physicochemical
[1] = Relative stabilities of the polymorphic forms (maturation / slurry, XRPD)
Method: The relative stabilities of the polymorphic forms of Compound 1 were analyzed. For example, form 1 tosylate salt was subjected to a maturation experiment for 24 hours in either IPA or methyl pentanone, seeded with either form 2 or form 3 tosylate salt. […] A slurry of a 50:50 mixture of form 1 and form 3 were analyzed in IPA for 18 hours at 0° C., 25° C., 40° C., and 60° C., as shown in FIG. 7.

[2] = Temperature and moisture stability study (HPLC impurity profile)
Method: A stability study was conducted on tosylate salt and mesylate salt of Compound 1, by monitoring changes in the high performance liquid chromatography (HPLC) impurity profiles for each salt when exposed to various temperatures and/or humidity conditions. Each sample was placed in a closed container and exposed to three controlled environments: refrigerated (5° C.), 20° C. and 60% relative humidity, and 40° C. and 75% relative humidity. […] The stability study of the crystalline tosylate salt was continued.
Samples were analyzed by the following reversed-phase HPLC impurity profile method at time points 0, 1, 2, 4 weeks (Table 7) and 3 months (Table 8) for the tosylate salt; and 0, 1 and 2 weeks for the mesylate salt (Table 9).
(§1) Reversed-phase HPLC analysis was conducted using a SYMMETRY SHIELD RP18 column (4.6×250 mm, 5 µm particle size), although analysis using a similar or equivalent column would be expected to yield similar results. The mobile phase components were 0.01 M ammonium acetate in water at pH 3.3 (A) and acetonitrile (B). The mobile phase composition was a gradient that increased from 6% to 15% B in five minutes, held at 15% B for 15 minutes, increased from 15% to 60% B in ten minutes, then from 60% to 90% B in two minutes, and then the system was re-equilibrated at 6% B for four minutes. The flow rate was 1.0 mL/minute, and the injection volume was 10.0 μL. The column temperature was maintained at 30° C. Detection was by ultraviolet light (UV) at 280 nm. The retention time for Compound 1 was approximately 15.7 minutes. The sample solution was prepared in mobile phase A to a final concentration of 2.0 mg/mL.

[3] = Photostability study (HPLC impurity profile)
Method: as §1
A photostability study was conducted on the tosylate salt of Compound 1. Two samples were prepared in clear glass Petri dishes. One sample was wrapped in aluminum foil to serve as a control sample. Both samples were placed in the ES 2000 Environmental Light 10 Chamber and exposed to 12 kilolux of cool white fluorescent light for a total of 47 hours.

[4] = Water content and room temperature stability of crystalline tosylate salt
Method: Upon drying, water content in the crystalline tosylate salt of Compound 1 was calculated to be 0.5%. After standing at room temperature for 24 hours, this value increased to 5%. In contrast to the amorphous Compound 1, the crystalline tosylate salt of Compound 1 was stable for weeks and months at room temperature, maintaining a water content of approximately 5%.

[5] = Solubility of crystalline tosylate salt (excess solids, HPLC of supernatant); details: for Solubility: ambient temperature, two hours
Method: (§2) The solubilities were determined by mixing excess solids with solvent, at ambient temperature for two hours, followed by filtration of the supernatant. The supernatant concentration was determined by high-performance liquid chromatography (HPLC). […] The pH of 122.1 mg of the subject crystalline tosylate salt in 1.0 mL of water was determined to be 5.70.

[6] = Hygroscopicity by symmetric vapor sorption analyzer; details: 95% RH, 25.0° C.
Method: The hygroscopicity of the subject crystalline tosylate salt was determined using a symmetric vapor sorption analyzer, and reported as wt % gained as a function of percent relative humidity (% RH) from 5% to 95% to 1%, at 5% intervals at 25.0° C. A maximum weight gain of 12 wt % at 95% RH, with slight hysteresis upon desorption, was observed, and a 2 wt % loss due to IPA was observed.

[7] = pH of crystalline tosylate salt in water; details: 122.1 mg in 1.0 mL of water
Method: as §2

[8] = Stability studies on free base Compound 1 and amorphous diHCl salt; details: 40° C.
Method: Stability studies were performed on the free base Compound 1 and an amorphous diHCl salt of Compound 1. This salt was formed by dissolving the compound in aqueous solution, adjusting the pH of the solution to approximately 4.2, followed by lyophilization. The free base degraded in less than one month at 40° C., and approximately three months at 4° C. In contrast, the diHCl salt of Compound 1 was stable for 6 months at 40° C., and for two years at room temperature (25° C.).

[9] = Control sample wrapped in aluminum foil, 47 hours in light chamber
[10] = Exposed to 12 kilolux cool white fluorescent light, 47 hours
[11] = room temperature, weeks and months

## CN(C)c1cc(CNCC(C)(C)C)c(O)c2c1CC1CC3C(N(C)C)C(O)=C(C(N)=O)C(=O)C3(O)C(O)=C1C2=O.Cc1ccc(S(=O)(=O)O)cc1 (stereo not shown) [form 1 tosylate salt]
[1]; 50:50 mixture of form 1 and form 3 in IPA, 18 hours at 0° C., 25° C., 40° C., 60° C.
  change of polymorphic form in slurry: no change of form 1 into form 3
[1]; 24 hours in IPA or methyl pentanone, seeded with form 2 or form 3 tosylate salt
  change of polymorphic form on maturation: no change of form 1 into form 2 or 3

## CN(C)c1cc(CNCC(C)(C)C)c(O)c2c1CC1CC3C(N(C)C)C(O)=C(C(N)=O)C(=O)C3(O)C(O)=C1C2=O.CS(=O)(=O)O (stereo not shown) [mesylate salt of Compound 1]
[2]; 1 week, 5° C.
  Compound 1: 98.2%
  RRT 1.19: 0.17%
  RRT 1.26 (beta-epimer): 1.6%
  RRT 1.77: 0.08%
  Total Impurities: 1.85%
[2]; 1 week, 20° C. & 60% RH
  Compound 1: 98.0%
  RRT 1.19: 0.17%
  RRT 1.26 (beta-epimer): 1.8%
  RRT 1.77: 0.09%
  Total Impurities: 2.06%
[2]; 1 week, 40° C. & 75% RH
  Compound 1: 97.1%
  RRT 0.52: 0.07%
  RRT 0.77: 0.05%
  RRT 1.19: 0.16%
  RRT 1.26 (beta-epimer): 2.6%
  RRT 1.77: 0.09%
  Total Impurities: 2.97%
[2]; 2 weeks, 5° C.
  Compound 1: 98.3%
  RRT 0.93: 0.06%
  RRT 1.19: 0.20%
  RRT 1.26 (beta-epimer): 1.3%
  RRT 1.77: 0.09%
  Total Impurities: 1.65%
[2]; 2 weeks, 20° C. & 60% RH
  Compound 1: 98.1%
  RRT 0.93: 0.06%
  RRT 1.19: 0.20%
  RRT 1.26 (beta-epimer): 0.11%
  RRT 1.77: 0.11%
  Total Impurities: 1.87%
[2]; 2 weeks, 40° C. & 75% RH
  Compound 1: 96.6%
  RRT 0.52: 0.05%
  RRT 0.77: 0.07%
  RRT 0.93: 0.06%
  RRT 1.19: 0.19%
  RRT 1.26 (beta-epimer): 0.11%
  RRT 1.77: 0.11%
  Total Impurities: 3.38%
[2]; 5° C.
  stability: unstable
[2]; Initial
  Compound 1: 98.3%
  RRT 1.19: 0.20%
  RRT 1.26 (beta-epimer): 1.5%
  Total Impurities: 1.70%

## CN(C)c1cc(CNCC(C)(C)C)c(O)c2c1CC1CC3C(N(C)C)C(O)=C(C(N)=O)C(=O)C3(O)C(O)=C1C2=O.Cc1ccc(S(=O)(=O)O)cc1 (stereo not shown) [tosylate salt of Compound 1]
[3]; [9]
  Compound 1: 98.2%
  RRT 0.52: 0.06%
  RRT 0.77: 0.08%
  RRT 0.93: 0.12%
  RRT 1.19: 0.26%
  RRT 1.26: 1.2%
  RRT 1.77: 0.16%
[3]; [10]
  Compound 1: 98.2%
  RRT 0.52: 0.06%
  RRT 0.77: 0.09%
  RRT 0.93: 0.13%
  RRT 1.19: 0.26%
  RRT 1.26: 1.1%
  RRT 1.77: 0.16%
[4]; after standing at room temperature for 24 hours
  water content: 5%
[4]; [11]
  stability at room temperature: stable
  water content maintained: approximately 5%
[4]; upon drying
  water content: 0.5%
[5]; 56.8 mg in 0.5 mL water
  Equilibration in water (appearance): clear solutions
[5]; 122.1 mg in 1.0 mL water
  Equilibration in water (appearance): clear solutions
[5]; Acetonitrile
  Solubility: 5.9 mg/mL
[5]; IPA
  Solubility: 5.8 mg/mL
[5]; Methanol
  Solubility: 86.1 mg/mL
[5]; Water
  Solubility: >100 mg/mL
[2]; 0 month, 20° C. & 60% RH
  4-keto compound RRT = 1.57: 0.05%
  Beta-epimer RRT = 1.26: 1.76%
  Total impurity: 2.12%
[2]; 0 month, 40° C. & 75% RH
  4-keto compound RRT = 1.57: 0.05%
  Beta-epimer RRT = 1.26: 1.76%
  Total impurity: 2.12%
[2]; 1 week, 5° C.
  Compound 1: 98.5%
  RRT 0.52: 0.09%
  RRT 1.19: 0.21%
  RRT 1.26 (beta-epimer): 1.1%
  RRT 1.77: 0.11%
  Total Impurities: 1.51
[2]; 1 week, 20° C. & 60% RH
  Compound 1: 98.3%
  RRT 0.52: 0.09%
  RRT 1.19: 0.21%
  RRT 1.26 (beta-epimer): 1.2%
  RRT 1.77: 0.12%
  Total Impurities: 1.63
[2]; 1 week, 40° C. & 75% RH
  Compound 1: 98.2%
  RRT 0.52: 0.09%
  RRT 0.77: 0.05%
  RRT 1.19: 0.21%
  RRT 1.26 (beta-epimer): 1.3%
  RRT 1.77: 0.14%
  Total Impurities: 1.80
[2]; 2 weeks, 5° C.
  Compound 1: 98.4%
  RRT 0.52: 0.08%
  RRT 0.93: 0.08%
  RRT 1.19: 0.24%
  RRT 1.26 (beta-epimer): 1.1%
  RRT 1.77: 0.12%
  Total Impurities: 1.62
[2]; 2 weeks, 20° C. & 60% RH
  Compound 1: 98.4%
  RRT 0.52: 0.08%
  RRT 0.93: 0.08%
  RRT 1.19: 0.25%
  RRT 1.26 (beta-epimer): 1.1%
  RRT 1.77: 0.15%
  Total Impurities: 1.66
[2]; 2 weeks, 40° C. & 75% RH
  Compound 1: 98.3%
  RRT 0.52: 0.08%
  RRT 0.93: 0.09%
  RRT 1.19: 0.25%
  RRT 1.26 (beta-epimer): 1.1%
  RRT 1.77: 0.16%
  Total Impurities: 1.68
[2]; 3 month, 20° C. & 60% RH
  4-keto compound RRT = 1.57: 0.10%
  Beta-epimer RRT = 1.26: 1.74%
  M-2 impurity RRT = 0.84: 0.18%
  Total impurity: 2.86%
[2]; 3 month, 40° C. & 75% RH
  4-keto compound RRT = 1.57: 0.14%
  Beta-epimer RRT = 1.26: 1.66%
  M-2 impurity RRT = 0.84: 0.31%
  Total impurity: 3.12%
[2]; 4 weeks, 5° C.
  Compound 1: 98.3%
  RRT 0.52: 0.09%
  RRT 0.77: 0.08%
  RRT 0.93: 0.07%
  RRT 1.19: 0.23%
  RRT 1.26 (beta-epimer): 1.0%
  RRT 1.77: 0.14%
  Total Impurities: 1.61
[2]; 4 weeks, 20° C. & 60% RH
  Compound 1: 98.2%
  RRT 0.52: 0.10%
  RRT 0.77: 0.10%
  RRT 0.93: 0.12%
  RRT 1.19: 0.24%
  RRT 1.26 (beta-epimer): 1.1%
  RRT 1.77: 0.18%
  Total Impurities: 1.84
[2]; 4 weeks, 40° C. & 75% RH
  Compound 1: 98.1%
  RRT 0.52: 0.10%
  RRT 0.77: 0.17%
  RRT 0.93: 0.13%
  RRT 1.19: 0.26%
  RRT 1.26 (beta-epimer): 1.1%
  RRT 1.77: 0.20%
  Total Impurities: 1.96
[2]; Initial
  Compound 1: 98.4%
  RRT 0.52: 0.06%
  RRT 1.19: 0.24%
  RRT 1.26 (beta-epimer): 1.2%
  RRT 1.77: 0.10%
  Total Impurities: 1.60
[2]; after two weeks, 5° C., 20° C. & 60% RH, 40° C. & 75% RH
  relative stability among crystalline forms: most stable crystalline form
[2]; refrigerated and/or 20° C. & 60% RH, at least four weeks
  storage stability: stable
[6]
  maximum weight gain (hygroscopicity): 12 wt %
[7]
  pH: 5.70

## CN(C)c1cc(CNCC(C)(C)C)c(O)c2c1CC1CC3C(N(C)C)C(O)=C(C(N)=O)C(=O)C3(O)C(O)=C1C2=O.Cl.Cl (stereo not shown) [diHCl salt of Compound 1]
[8]
  time for which the substance was stable: 6 months
